Values after ≈ are worked out from the molar mass of the structure shown.
Tests used:
Format in all cases: functional
[1] = tested on: Mycobacterium tuberculosis; assay: Antimycobacterial activity against isoniazid, streptomycin and ethionamide resistant Mycobacterium tuberculosis clinical isolate F
[2] = tested on: Mycobacterium tuberculosis; assay: Antimycobacterial activity against isoniazid, streptomycin, ethambutol and ethionamide resistant Mycobacterium tuberculosis clinical isolate A
[3] = tested on: Mycobacterium tuberculosis; assay: Antimycobacterial activity against isoniazid, streptomycin, rifampicin, ethambutol, ethionamide and ofloxacin resistant Mycobacterium tuberculosis clinical isolate H
[4] = tested on: Mycobacterium tuberculosis; assay: Antimycobacterial activity against isoniazid and ethionamide resistant Mycobacterium tuberculosis clinical isolate E
[5] = tested on: Mycobacterium tuberculosis; assay: Antimycobacterial activity against isoniazid, streptomycin, rifampicin, ethambutol and ethionamide resistant Mycobacterium tuberculosis clinical isolate G
[6] = tested on: Mycobacterium tuberculosis; assay: Antimycobacterial activity against isoniazid and ethionamide resistant Mycobacterium tuberculosis clinical isolate B
[7] = tested on: Mycobacterium tuberculosis; assay: Antitubercular activity against multidrug resistant Mycobacterium tuberculosis clinical isolate 4 by resazurin microtitre assay
[8] = tested on: Mycobacterium tuberculosis; assay: Antitubercular activity against extensively drug resistant Mycobacterium tuberculosis clinical isolate 6 by resazurin microtitre assay
[9] = tested on: Mycobacterium tuberculosis; assay: Antitubercular activity against extensively drug resistant Mycobacterium tuberculosis clinical isolate 9 by resazurin microtitre assay
[10] = tested on: Mycobacterium tuberculosis; assay: Antitubercular activity against multidrug resistant Mycobacterium tuberculosis clinical isolate 3 by resazurin microtitre assay
[11] = tested on: Mycobacterium tuberculosis; assay: Antitubercular activity against extensively drug resistant Mycobacterium tuberculosis KMRC 0 0203-0 0197 by resazurin microtitre assay
[12] = tested on: Mycobacterium tuberculosis; assay: Antitubercular activity against extensively drug resistant Mycobacterium tuberculosis clinical isolate 10 by resazurin microtitre assay
[13] = tested on: Mycobacterium tuberculosis; assay: Antimycobacterial activity against multidrug resistant Mycobacterium tuberculosis H37Rv
[14] = tested on: Mycobacterium tuberculosis; assay: Antimycobacterial activity against multidrug-resistant Mycobacterium tuberculosis H37Rv assessed as inhibition of bacterial growth by alamar blue assay
[15] = tested on: Mycobacterium tuberculosis; assay: Antitubercular activity against multidrug resistant Mycobacterium tuberculosis clinical isolate 1 by resazurin microtitre assay
[16] = tested on: Mycobacterium tuberculosis; assay: Antitubercular activity against extensively drug resistant Mycobacterium tuberculosis clinical isolate 8 by resazurin microtitre assay
[17] = tested on: Mycobacterium tuberculosis; assay: Antitubercular activity against multidrug resistant Mycobacterium tuberculosis clinical isolate 6 by resazurin microtitre assay
[18] = tested on: Mycobacterium tuberculosis; assay: Antitubercular activity against multidrug resistant Mycobacterium tuberculosis clinical isolate 5 by resazurin microtitre assay
[19] = tested on: Mycobacterium tuberculosis; assay: Antitubercular activity against extensively drug resistant Mycobacterium tuberculosis clinical isolate 3 by resazurin microtitre assay
[20] = tested on: Mycobacterium tuberculosis; assay: Antitubercular activity against extensively drug resistant Mycobacterium tuberculosis clinical isolate 2 by resazurin microtitre assay
[21] = tested on: Mycobacterium tuberculosis; assay: Antitubercular activity against multidrug resistant Mycobacterium tuberculosis clinical isolate 8 by resazurin microtitre assay
[22] = tested on: Mycobacterium tuberculosis; assay: Antimycobacterial activity against extensively drug resistant Mycobacterium tuberculosis H37Rv
[23] = tested on: Mycobacterium tuberculosis; assay: Antitubercular activity against extensively drug resistant Mycobacterium tuberculosis clinical isolate 5 by resazurin microtitre assay
[24] = tested on: Mycobacterium tuberculosis; assay: Antimycobacterial activity against extensively-resistant Mycobacterium tuberculosis H37Rv assessed as inhibition of bacterial growth by alamar blue assay
[25] = tested on: Mycobacterium tuberculosis; assay: Antitubercular activity against multidrug resistant Mycobacterium tuberculosis clinical isolate 2 by resazurin microtitre assay
[26] = tested on: Mycobacterium tuberculosis; assay: Antitubercular activity against multidrug resistant Mycobacterium tuberculosis clinical isolate 7 by resazurin microtitre assay
[27] = tested on: Mycobacterium tuberculosis; assay: Antitubercular activity against extensively drug resistant Mycobacterium tuberculosis clinical isolate 7 by resazurin microtitre assay
[28] = tested on: Mycobacterium tuberculosis; assay: Antitubercular activity against extensively drug resistant Mycobacterium tuberculosis clinical isolate 11 by resazurin microtitre assay
[29] = tested on: Mycobacterium tuberculosis; assay: Antitubercular activity against extensively drug resistant Mycobacterium tuberculosis clinical isolate 4 by resazurin microtitre assay
[30] = tested on: Mycobacterium tuberculosis; assay: Antitubercular activity against extensively drug resistant Mycobacterium tuberculosis clinical isolate 1 by resazurin microtitre assay
[31] = tested on: Mycobacterium tuberculosis; assay: Antitubercular activity against multidrug resistant Mycobacterium tuberculosis clinical isolate 9 by resazurin microtitre assay
[32] = tested on: Mycobacterium tuberculosis; assay: Antitubercular activity against multidrug resistant Mycobacterium tuberculosis clinical isolate 10 by resazurin microtitre assay
[33] = tested on: Mycobacterium tuberculosis; assay: Antitubercular activity against multidrug resistant Mycobacterium tuberculosis clinical isolate 11 by resazurin microtitre assay
[34] = tested on: Mycobacterium tuberculosis; assay: Antimycobacterial activity against isoniazid and rifampicin resistant Mycobacterium tuberculosis clinical isolate D
[35] = tested on: Mycobacterium tuberculosis; assay: Antimycobacterial activity against isoniazid, streptomycin, and rifampicin resistant Mycobacterium tuberculosis clinical isolate C
[36] = tested on: Mycobacterium tuberculosis; assay: Antimycobacterial activity against Mycobacterium tuberculosis clinical isolate 581-17 harboring gyrA QRDR c270t (A90V) mutant and wild type gyrB
[37] = tested on: Mycobacterium tuberculosis; assay: Antimycobacterial activity against Mycobacterium tuberculosis clinical isolate 666-0 harboring wild type gyrA and wild type gyrB
[38] = tested on: Mycobacterium tuberculosis; assay: Antimycobacterial activity against Mycobacterium tuberculosis clinical isolate 124-0 harboring wild type gyrA and wild type gyrB
[39] = tested on: Mycobacterium tuberculosis; assay: Antimycobacterial activity against Mycobacterium tuberculosis clinical isolate 427-18 harboring gyrA QRDR c270t (A90V) mutant and wild type gyrB
[40] = tested on: Mycobacterium tuberculosis; assay: Antimycobacterial activity against Mycobacterium tuberculosis clinical isolate 775-0 harboring gyrA QRDR c270t (A90V) mutant and wild type gyrB
[41] = tested on: Mycobacterium tuberculosis; assay: Antimycobacterial activity against Mycobacterium tuberculosis clinical isolate 152-0 harboring wild type gyrA and wild type gyrB
[42] = tested on: Mycobacterium tuberculosis; assay: Antimycobacterial activity against Mycobacterium tuberculosis clinical isolate 410-11 harboring wild type and wild type gyrB
[43] = tested on: Mycobacterium tuberculosis; assay: Antimycobacterial activity against Mycobacterium tuberculosis H37Rv harboring wild type gyrA and wild type gyrB
[44] = tested on: Mycobacterium tuberculosis; assay: Antimycobacterial activity against Mycobacterium tuberculosis clinical isolate 383-0 harboring wild type gyrA and wild type gyrB
[45] = tested on: Mycobacterium tuberculosis; assay: Antimycobacterial activity against Mycobacterium tuberculosis clinical isolate 742-0 harboring gyrA QRDR a282g (D94G) mutant and wild type gyrB
[46] = tested on: Mycobacterium tuberculosis; assay: Antimycobacterial activity against Mycobacterium tuberculosis clinical isolate 199-00 harboring gyrA QRDR c270t (A90V) mutant and wild type gyrB
[47] = tested on: Mycobacterium tuberculosis; assay: Antitubercular activity against multidrug resistant Mycobacterium tuberculosis H37Rv assessed as inhibition of bacterial growth by alamar blue assay
[48] = tested on: Mycobacterium tuberculosis; assay: Antitubercular activity against extensively drug resistant Mycobacterium tuberculosis H37Rv assessed as inhibition of bacterial growth by alamar blue assay

## CCc1cc(C(N)=S)ccn1 [ETHIONAMIDE]
[1]
  MIC: > 80 µg/mL
[2]
  MIC: 114 µg/mL (≈ 686 µM)
[3]
  MIC: 114 µg/mL (≈ 686 µM)
[4]
  MIC: > 80 µg/mL
[5]
  MIC: > 114 µg/mL
[6]
  MIC: > 114 µg/mL

## NNC(=O)c1ccncc1 [ISONIAZID]
[7]
  MIC: 25 µg/mL (≈ 182 µM)
[8]
  MIC: 12.5 µg/mL (≈ 91.1 µM)
[9]
  MIC: 50 µg/mL (≈ 365 µM)
[10]
  MIC: 3.13 µg/mL (≈ 22.8 µM)
[11]
  MIC: 25 µg/mL (≈ 182 µM)
[12]
  MIC: > 200 µg/mL
[13]
  MIC: 6.25 µg/mL (≈ 45.6 µM)
[14]
  MIC: 6.25 µg/mL (≈ 45.6 µM)
[15]
  MIC: 12.5 µg/mL (≈ 91.1 µM)
[16]
  MIC: 12.5 µg/mL (≈ 91.1 µM)
[17]
  MIC: 25 µg/mL (≈ 182 µM)
[18]
  MIC: 12.5 µg/mL (≈ 91.1 µM)
[19]
  MIC: 3.13 µg/mL (≈ 22.8 µM)
[20]
  MIC: 3.13 µg/mL (≈ 22.8 µM)
[21]
  MIC: 12.5 µg/mL (≈ 91.1 µM)
[22]
  MIC: 50 µg/mL (≈ 365 µM)
[23]
  MIC: 12.5 µg/mL (≈ 91.1 µM)
[24]
  MIC: 50 µg/mL (≈ 365 µM)
[25]
  MIC: 12.5 µg/mL (≈ 91.1 µM)
[26]
  MIC: 50 µg/mL (≈ 365 µM)
[27]
  MIC: 6.25 µg/mL (≈ 45.6 µM)
[28]
  MIC: 6.25 µg/mL (≈ 45.6 µM)
[29]
  MIC: 12.5 µg/mL (≈ 91.1 µM)
[30]
  MIC: 12.5 µg/mL (≈ 91.1 µM)
[31]
  MIC: 25 µg/mL (≈ 182 µM)
[32]
  MIC: 3.13 µg/mL (≈ 22.8 µM)
[33]
  MIC: 12.5 µg/mL (≈ 91.1 µM)

## Oc1ccc(-c2nnc(S)o2)cc1
[34]
  MIC: > 32 µg/mL
[1]
  MIC: 8 µg/mL (≈ 41.2 µM)
[35]
  MIC: 16 µg/mL (≈ 82.4 µM)
[2]
  MIC: > 32 µg/mL
[3]
  MIC: 2 µg/mL (≈ 10.3 µM)
[4]
  MIC: 16 µg/mL (≈ 82.4 µM)
[5]
  MIC: > 32 µg/mL
[6]
  MIC: 8 µg/mL (≈ 41.2 µM)

## CC(C)(C)n1cc(C(=O)O)c(=O)c2cc(F)c(-c3ccc(O)cc3)cc21
[36]
  MIC: 8 µg/mL (≈ 22.5 µM)
[37]
  MIC: 2 µg/mL (≈ 5.63 µM)
[38]
  MIC: 1 µg/mL (≈ 2.81 µM)
[39]
  MIC: 1 µg/mL (≈ 2.81 µM)
[40]
  MIC: 2 µg/mL (≈ 5.63 µM)
[41]
  MIC: 2 µg/mL (≈ 5.63 µM)
[42]
  MIC: 2 µg/mL (≈ 5.63 µM)
[43]
  MIC: 1 µg/mL (≈ 2.81 µM)
[44]
  MIC: 2 µg/mL (≈ 5.63 µM)
[45]
  MIC: 2 µg/mL (≈ 5.63 µM)
[46]
  MIC: 2 µg/mL (≈ 5.63 µM)

## CC(C)(C)n1cc(C(=O)O)c(=O)c2cc(F)c(-c3cccnc3)cc21
[36]
  MIC: 2 µg/mL (≈ 5.88 µM)
[37]
  MIC: 4 µg/mL (≈ 11.8 µM)
[38]
  MIC: 1 µg/mL (≈ 2.94 µM)
[39]
  MIC: 1 µg/mL (≈ 2.94 µM)
[40]
  MIC: 2 µg/mL (≈ 5.88 µM)
[41]
  MIC: 4 µg/mL (≈ 11.8 µM)
[42]
  MIC: 4 µg/mL (≈ 11.8 µM)
[43]
  MIC: 0.5 µg/mL (≈ 1.47 µM)
[44]
  MIC: 2 µg/mL (≈ 5.88 µM)
[45]
  MIC: 32 µg/mL (≈ 94 µM)
[46]
  MIC: 4 µg/mL (≈ 11.8 µM)

## O=C(Cc1ccccc1F)NNC(=O)c1ccncc1
[47]
  MIC: 62.5 µg/mL (≈ 229 µM)
[48]
  MIC: 250 µg/mL (≈ 915 µM)

## CN[C@@H]1[C@H](O[C@H]2[C@H](O[C@H]3[C@H](O)[C@@H](O)[C@H](N=C(N)N)[C@@H](O)[C@@H]3N=C(N)N)O[C@@H](C)[C@]2(O)C=O)O[C@@H](CO)[C@H](O)[C@H]1O [STREPTOMYCIN]
[7]
  MIC: 0.78 µg/mL (≈ 1.34 µM)
[1]
  MIC: > 16 µg/mL
[8]
  MIC: 50 µg/mL (≈ 86 µM)
[9]
  MIC: 200 µg/mL (≈ 344 µM)
[10]
  MIC: 0.39 µg/mL (≈ 0.671 µM)
[11]
  MIC: 0.78 µg/mL (≈ 1.34 µM)
[12]
  MIC: < 0.09 µg/mL
[15]
  MIC: 100 µg/mL (≈ 172 µM)
[16]
  MIC: > 200 µg/mL
[17]
  MIC: 25 µg/mL (≈ 43 µM)
[18]
  MIC: 3.13 µg/mL (≈ 5.38 µM)
[19]
  MIC: > 200 µg/mL
[35]
  MIC: 32 µg/mL (≈ 55 µM)
[20]
  MIC: 50 µg/mL (≈ 86 µM)
[21]
  MIC: 3.13 µg/mL (≈ 5.38 µM)
[23]
  MIC: 50 µg/mL (≈ 86 µM)
[2]
  MIC: > 64 µg/mL
[3]
  MIC: > 64 µg/mL
[25]
  MIC: 1.56 µg/mL (≈ 2.68 µM)
[26]
  MIC: 200 µg/mL (≈ 344 µM)
[4]
  MIC: 16 µg/mL (≈ 27.5 µM)
[27]
  MIC: 0.78 µg/mL (≈ 1.34 µM)
[28]
  MIC: 200 µg/mL (≈ 344 µM)
[29]
  MIC: 0.78 µg/mL (≈ 1.34 µM)
[5]
  MIC: > 64 µg/mL
[30]
  MIC: 0.78 µg/mL (≈ 1.34 µM)
[31]
  MIC: 25 µg/mL (≈ 43 µM)
[32]
  MIC: > 200 µg/mL
[6]
  MIC: 8 µg/mL (≈ 13.8 µM)
[33]
  MIC: 3.13 µg/mL (≈ 5.38 µM)
